{
  "source": "patent US20240101600A1",
  "about": "“FIBROBLAST GROWTH FACTOR RECEPTOR (FGFR)-TARGETING ANTAGONISTIC SHORT PEPTIDE” (WENZHOU MEDICAL UNIVERSITY, priority 2019, published 2024)",
  "key": {"FGFR1B": {"target": "FGFR1B (Homo sapiens, UniProt P11362)", "sequence (P11362 22-822 isoform P11362-19 limits assumed)": "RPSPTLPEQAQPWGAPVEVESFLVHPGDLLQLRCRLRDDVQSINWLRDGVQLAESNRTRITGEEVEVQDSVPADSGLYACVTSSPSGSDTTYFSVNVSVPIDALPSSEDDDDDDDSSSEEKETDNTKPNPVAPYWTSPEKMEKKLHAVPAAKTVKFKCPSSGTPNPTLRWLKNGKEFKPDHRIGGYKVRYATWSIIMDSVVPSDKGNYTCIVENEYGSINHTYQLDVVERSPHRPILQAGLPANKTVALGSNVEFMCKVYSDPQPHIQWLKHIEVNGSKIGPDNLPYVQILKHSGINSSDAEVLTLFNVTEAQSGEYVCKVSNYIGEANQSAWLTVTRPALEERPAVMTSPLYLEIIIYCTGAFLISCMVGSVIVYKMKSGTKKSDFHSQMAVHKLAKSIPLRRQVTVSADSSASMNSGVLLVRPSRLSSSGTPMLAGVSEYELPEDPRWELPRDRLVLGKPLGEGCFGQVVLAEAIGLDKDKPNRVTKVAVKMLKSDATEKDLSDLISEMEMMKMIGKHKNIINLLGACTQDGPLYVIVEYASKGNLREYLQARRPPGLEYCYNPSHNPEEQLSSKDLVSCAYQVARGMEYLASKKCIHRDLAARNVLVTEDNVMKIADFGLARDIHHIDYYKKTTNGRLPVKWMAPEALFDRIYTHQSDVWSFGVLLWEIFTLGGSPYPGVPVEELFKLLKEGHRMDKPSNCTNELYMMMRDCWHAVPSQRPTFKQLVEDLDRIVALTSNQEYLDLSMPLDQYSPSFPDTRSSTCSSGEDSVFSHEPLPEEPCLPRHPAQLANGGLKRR", "experiment": "SPR detection of interaction with FGFR1B in presence of bFGF", "assay_type": "binding", "method": "Amino acid sequence of P9 degraded short peptide P48 was analyzed using Amber11 program. An initial structure of the P9 and P48 peptide chains was constructed using a sequence command in a Tleap module of the Amber11 program. Hydrogen atoms were added using the Tleap module of the Amber11 program, a […] TIP3P solvent box was added at a distance of 10 Å from the peptide chain, and counter ions were added to the two systems to keep the system electrically neutral. The system was subjected to 20-ns NPT system simulation to obtain an optimal spatial structure. […] The experimental procedure was as follows: the plasma was centrifuged and the supernatant was removed, and 60 μl of peptide was added to incubate for different lengths of time (P9 was incubated for 5, 10, 15, 20, 25, 30 and 45 min; P48 was incubated for 1, 2, 3, 4, 5, 10 and 12 h), and the incubation was terminated with 200 μl of 5% glacial acetic acid. Solid phase extraction: activation was conducted with 1.5 ml of methanol, an obtained product was washed with 1.5 ml of H2O, 400 μl of a sample was loaded, washed with 1 ml of H2O, and elution was conducted with 2 ml of 30% acetonitrile to collect samples, and the samples were freeze-dried and subjected to liquid chromatography analysis. […] The last 1 ns of trajectory obtained by molecular dynamics simulation of the system was selected to calculate the binding free energy, the molecules of the solvent of water and counter ion were deleted, and conformation was recorded every 10 ps to obtain a total of 101 structures. The binding free energy between FGF2 and FGFR1 were calculated by a molecular mechanics-generalized born surface area (MM-GBSA) method. The binding free energy and energy decomposition of amino acid residues were calculated using an MMPBA.py script provided by the Amber11. […] After bFGF and FGFR1 flew into the sensor chip, P48 (50 μM, 100 μM, 200 μM, 300 μM and 400 μM) was injected into a sensor surface, and the obtained data was analyzed using BIAevaluation software."}, "[1]": {"system": "gastric cancer cells SGC-7901", "experiment": "Flow cytometry cell cycle analysis of SGC-7901 cells", "assay_type": "cell-based", "settings": "P48 with bFGF, 24 h"}, "SGC-7901 cells": {"system": "SGC-7901 cells", "experiment": "MTT viability, SGC-7901 cells", "assay_type": "cell-based", "settings": "48 h with bFGF", "method": "(§1) In vitro anti-tumor activity of a short peptide compound P48 Hela229 (1500 cells/100 μl), B16-F10 (1000 cells/100 μl), NCI-H460 (4000 cells/100 μl) and SGC7901 (4000 cells/100 μl) cells were inoculated in 96-well plates. After incubated overnight adherently, the original medium was replaced with a Dulbecco's modified eagle medium (DMEM) containing 0.1% fetal bovine serum (FBS) or a Roswell Park Memorial Institute 1640 (RPMI-1640) medium containing 0.1% FBS, and culture was continued for 24 h. A mixture of P48 and bFGF, or bFGF alone were added into corresponding wells, and incubated for 48 h; an MTT solution (5 mg/mL) prepared by PBS was added to the cells in each well at 37° C., and treated for 4 h. The MTT was removed by aspiration, 150 μL of DMSO was added to each well, shaking was conducted for 10 min, and an optical density (OD) value was quantified with a microplate reader (SpectraMax M2/M2e, Molecular Devices, Sunnyvale, USA) at a wavelength of 490 nm. The percentage of drug growth inhibition rate was calculated by comparing with the bFGF group. […] The experimental procedure was as follows: 10% FBS-containing medium (500 μl) was added to a lower surface of a transwell insertion chamber, the cells together with the drug were inoculated into an upper chamber, and cultured with a serum-free medium (200 μl). […]"}, "NCI-H460 cells": {"system": "NCI-H460 cells", "experiment": "MTT viability, NCI-H460 cells", "assay_type": "cell-based", "settings": "48 h with bFGF", "method": "as §1"}},
  "note": "Where no end group is shown, it is not given here.",
  "data": [
    {"substance": "SPPRYPGGGS-NH2 [P48, Ser-Pro-Pro-Arg-Tyr-Pro-Gly-Gly-Gly-Ser-NH2]", "values": [
      {"measurement": "competitive binding to FGFR1 with bFGF", "setting": "FGFR1B; P48 50-400 μM", "value": "can competitively bind to FGFR1 with basic fibroblast growth factor (bFGF)"},
      {"measurement": "concentration dependence of binding force", "setting": "FGFR1B; P48 50-400 μM", "value": "a higher concentration leads to a stronger binding force"},
      {"measurement": "binding degree FGFR1 versus FGFR2 and FGFR3", "setting": "FGFR1B; comparison of FIG. 1F and FIG. 2", "value": "stronger than that with FGFR2 and FGFR3"},
      {"measurement": "cell cycle arrest", "setting": "[1]", "value": "can block gastric cancer cells SGC-7901 in G0/G1 phase in a concentration-dependent manner"},
      {"measurement": "inhibition of cancer cell viability", "setting": "SGC-7901 cells", "value": "can significantly inhibit the viability of cancer cells"},
      {"measurement": "inhibition of cancer cell viability", "setting": "NCI-H460 cells", "value": "can significantly inhibit the viability of cancer cells"}
    ]}
  ]
}
